The species named for data set [1] is Mus musculus. The experiment in a line: Hepatoprotective activity in mouse model of CCl4-induced liver injury assessed as reduction in ALT level at 100 microg/ml (reference value: 40.2 U/mL). The class given is functional. To be noted: dose 100 µg/ml.
In data set [2] the test system is Huh-7. The experiment in a line: Hepatoprotective activity in human Huh-7 cells assessed as reduction in AST level. The class given is functional. Further details: scale not given: the % may be the effect or the level left.
Data set [3] deals with Huh-7. Briefly: Hepatoprotective activity in human Huh-7 cells assessed as reduction in ALT level. Further details: scale not given: the % may be the effect or the level left. In kind it is functional.
The subject of data set [4] is Huh-7. The experiment in a line: Hepatoprotective activity in human Huh-7 cells assessed as increasing in GSH level. The class given is functional.
For data set [5], the species on record is Mus musculus. Briefly: Hepatoprotective activity in CCl4-induced toxicity in liver injured mouse assessed as increase in inhibition of liver damage at 50 uM relative to control. In kind it is functional. Details: scale not given: the % may be the effect or the level left.
The species named for data set [6] is Mus musculus. Briefly: Hepatoprotective activity in GaIN-induced toxicity in liver injured mouse assessed as increase in inhibition of liver damage at 50 uM relative to control. In kind it is functional. Details: scale not given: the % may be the effect or the level left.
Data set [7] relates to Mus musculus. The experiment in a line: Hepatoprotective activity against CCl4-induced mouse acute liver injury model assessed as decreased sGOT level at 15 mg/kg, ip relative to control. The class given is functional. Details: scale not given: the % may be the effect or the level left.
In data set [8] the test system is Mus musculus. The experiment in a line: Hepatoprotective activity against CCl4-induced mouse chronic liver injury model assessed as decreased sGOT level at 15 mg/kg, ip relative to control. The class given is functional. Further details: scale not given: the % may be the effect or the level left.
Data set [9] concerns Mus musculus. Briefly: Hepatoprotective activity against CCl4-induced mouse acute liver injury model assessed as decreased sGPT level at 15 mg/kg, ip relative to control. Details: scale not given: the % may be the effect or the level left. The class given is functional.
In data set [10] the test system is Mus musculus. The experiment in a line: Hepatoprotective activity against CCl4-induced mouse chronic liver injury model assessed as decreased sGPT level at 15 mg/kg, ip relative to control. The class given is functional. Details: scale not given: the % may be the effect or the level left.
For data set [11], the system named is Mus musculus. The experiment in a line: Hepatoprotective activity against CCl4-induced mouse acute liver injury model assessed as decreased LDH level at 15 mg/kg, ip relative to control. Details: scale not given: the % may be the effect or the level left. In kind it is functional.
The subject of data set [12] is Mus musculus. The experiment in a line: Hepatoprotective activity against CCl4-induced mouse chronic liver injury model assessed as decreased LDH level at 15 mg/kg, ip relative to control. In kind it is functional. Further details: scale not given: the % may be the effect or the level left.
For data set [13], the system named is Mus musculus. Briefly: Hepatoprotective activity against CCl4-induced mouse acute liver injury model assessed as decreased AP level at 15 mg/kg, ip relative to control. The class given is functional. Details: scale not given: the % may be the effect or the level left.
Data set [14] has as its system Mus musculus. Briefly: Hepatoprotective activity against CCl4-induced mouse chronic liver injury model assessed as decreased AP level at 15 mg/kg, ip relative to control. Details: scale not given: the % may be the effect or the level left. In kind it is functional.
Data set [15] has as its system Hepatocyte. The experiment in a line: Hepatoprotective activity against D-GaIN-induced toxicity in mouse hepatocyte relative to control. In kind it is functional, cell-based.
In data set [16] the test system is Mus musculus. Briefly: Hepatoprotective activity in mouse model of D-GaIN/LPS-induced liver injury assessed as inhibition of sAST secretion at 100 mg/kg, po relative to control. In kind it is functional.
For data set [17], the system named is Mus musculus. Briefly: Hepatoprotective activity in mouse model of D-GaIN/LPS-induced liver injury assessed as inhibition of sALT level secretion at 100 mg/kg, po relative to control. The class given is functional.
Data set [18] has as its system Hepatocyte. Briefly: Hepatoprotective activity against D-GaIN-induced toxicity in mouse hepatocytes.
The species entered for data set [19] is Mus musculus. The experiment in a line: Hepatoprotective activity in mouse model of CCl4-induced liver injury assessed as reduction in AST level at 100 microg/ml (reference value: 5.9 U/mL). The following applies: dose 100 µg/ml. The class given is functional.
The subject of data set [20] is Rattus norvegicus. Briefly: Hepatoprotective activity in CCl4-induced rat model of liver injury assessed as reduction in ALT level at 4 mg/kg relative to control. Details: scale not given: the % may be the effect or the level left. The class given is functional.
The test system of data set [21] is Hepatocyte. Briefly: Hepatoprotective activity against CCL4-induced rat hepatocyte toxicity assessed as decrease in AST level at 0.25 mg/ml (reference value: 243.5 U/L). In kind it is functional.
The subject of data set [22] is Hepatocyte. The experiment in a line: Hepatoprotective activity against CCL4-induced rat hepatocyte toxicity assessed as decrease in ALT level at 0.25 mg/ml (reference value: 119.0 U/L). In kind it is functional.
Data set [23] relates to Hepatocyte. Briefly: Hepatoprotective activity against CCL4-induced rat hepatocyte toxicity assessed as decrease in MDA level at 0.25 mg/ml (reference value: 9.22 nmol/mg). The class given is functional.
The subject of data set [24] is Hepatocyte. Briefly: Hepatoprotective activity against CCL4-induced rat hepatocyte toxicity assessed as increase in GSH level at 0.25 mg/ml (reference value: 3.7 mg/g). The class given is functional.
Data set [25] deals with Hepatocyte. The experiment in a line: Hepatoprotective activity against CCL4-induced rat hepatocyte toxicity assessed as increase in SOD level at 0.25 mg/ml (reference value: 125.8 U/L). The class given is functional.
Data set [26] in a line: Hepatotoxicity in GaIN-induced rat model of liver injury assessed as reduction in ALT level at 4 mg/kg relative to control. The class given is toxicity, organism-based. Further details: scale not given: the % may be the effect or the level left. The following applies: in vivo.
Data set [27] relates to Rattus norvegicus. The experiment in a line: Hepatoprotective activity in ethanol-induced rat model of liver injury assessed as reduction in AST level at 4 mg/kg relative to control. The class given is functional. Further details: scale not given: the % may be the effect or the level left.
For data set [28], the system named is Rattus norvegicus. Briefly: Hepatoprotective activity in ethanol-induced rat model of liver injury assessed as reduction in ALT level at 4 mg/kg relative to control. In kind it is functional. Further details: scale not given: the % may be the effect or the level left.
In data set [29] the test system is Rattus norvegicus. The experiment in a line: Hepatoprotective activity in GaIN-induced rat model of liver injury assessed as reduction in ALT level at 4 mg/kg relative to control. The class given is functional. Details: scale not given: the % may be the effect or the level left.
For data set [30], the species on record is Mus musculus. Briefly: Hepatoprotective activity in CCl4-induced toxicity in liver injured mouse assessed as increase in inhibition of liver damage relative to control. In kind it is functional. Further details: concentration or dose not given beside the values.
In data set [31] the test system is Hepatocyte. Briefly: Hepatoprotective activity against D-GaIN-induced toxicity in mouse hepatocytes at 3 uM relative to control. The class given is functional.
Data set [32] has as its system Hepatocyte. The experiment in a line: Hepatoprotective activity against D-GaIN-induced toxicity in mouse hepatocytes at 10 uM relative to control. The class given is functional.
Data set [33] concerns Hepatocyte. Briefly: Hepatoprotective activity against D-GaIN-induced toxicity in mouse hepatocytes at 30 uM relative to control. In kind it is functional.
The subject of data set [34] is Hepatocyte. The experiment in a line: Hepatoprotective activity against D-GaIN-induced toxicity in mouse hepatocytes at 100 uM relative to control. The class given is functional.

With `C=C1[C@H](O)C[C@]2(C)CC[C@]3(C)C(=C[C@@H](O)[C@@H]4[C@@]5(C)CC[C@H](OC(C)=O)C(C)(C)[C@@H]5CC[C@]43C)[C@@H]2[C@@H]1C`, the Activity in the data set listed under Mus musculus [1] is 15.7 U/ml.
Consider `C[C@H]1[C@H](C)CC[C@]2(C(=O)O)CC[C@]3(C)C(=CC[C@@H]4[C@@]5(C)CC[C@H](O)C(C)(C)[C@@H]5CC[C@]43C)[C@H]12` [URSOLIC ACID], for which the Activity with Huh-7 [2] was 37.5%; in the data set with Huh-7 [3], 37.5%; in the data set on Huh-7 [4], 2.37 mg.
For `C[C@H]1[C@H](C)CC[C@]2(C(=O)O)CC[C@]3(C)C(=CC[C@@H]4[C@@]5(C)CC(=O)[C@H](O)[C@@](C)(CO)[C@@H]5CC[C@]43C)[C@H]12`, the Activity in the data set listed under Mus musculus [5] is on record as 54.3%; in the data set listed under Mus musculus [6], 49%.
Turning to `CC1(C)CC[C@]2(C)CC[C@]3(C)C(=CC[C@@H]4[C@@]5(C)CCC(=O)C(C)(C)[C@@H]5C(O)C[C@]43C)[C@@H]2C1` (some centres undefined), the Activity in the data set with Mus musculus [7] was 51.3%; in the data set with Mus musculus [8] it was 38.8%; in the data set on Mus musculus [9], 45.3%; in the data set on Mus musculus [10], 36.4%; with Mus musculus [11] it was 45%; in the data set with Mus musculus [12], 24.8%. Also, the Activity is recorded as 40.6% with Mus musculus [13] and 55.3% in the data set on Mus musculus [14].
`C[C@@H]1CC[C@]2(C(=O)O[C@@H]3O[C@H](CO)[C@@H](O)[C@H](O)[C@H]3O)CC[C@]3(C)C(=CC[C@@H]4[C@@]5(C)C[C@@H](O)C(=O)C(C)(C)[C@@H]5CC[C@]43C)[C@@H]2[C@]1(C)O`: the IC50 with Hepatocyte [15] and with Hepatocyte [18] was 46.7 µM throughout. The inhibition in vivo at 100 mg/kg stood at 76.8% in the data set on Mus musculus [16] and 78.4% with Mus musculus [17].
Turning to `C[C@H]1[C@H](C)CC[C@]2(C)CC[C@]3(C)C(=CC[C@@H]4[C@@]5(C)CC[C@H](O)C(C)(C)[C@@H]5CC[C@]43C)[C@H]12`, the Activity in the data set filed under Mus musculus [19] was determined as 40.22 U/ml.
For the compound `COC(=O)[C@]12CC[C@@H](C)[C@H](C)[C@H]1C1=CC[C@@H]3[C@@]4(C)C[C@@H](OC)[C@H](OC(C)=O)[C@@](C)(COC(C)=O)[C@@H]4CC[C@@]3(C)[C@]1(C)CC2`, in the data set with Rattus norvegicus [20], the Activity was determined as 33.3%.
For the compound `CC1(C)CC[C@]2(C(=O)O[C@@H]3O[C@H](CO[C@@H]4O[C@H](CO)[C@@H](O)[C@H](O)[C@H]4O)[C@@H](O)[C@H](O)[C@H]3O)CC[C@]3(C)C(=CC[C@@H]4[C@@]5(C)CCC(O[C@@H]6OC[C@H](O)[C@H](O)[C@H]6O)[C@@](C)(CO)[C@@H]5CC[C@]43C)[C@@H]2C1` (some centres undefined), the Activity in the data set with Hepatocyte [21] was 167.5 U/L; in the data set with Hepatocyte [22], 82.1 U/L; with Hepatocyte [23], 9.22 nmol/mg; in the data set on Hepatocyte [24] it was 5.3 mg/g; in the data set on Hepatocyte [25] it was 161.4 U/L.
Turning to `COC(=O)[C@]12CC[C@@H](C)[C@H](C)[C@H]1C1=CC[C@@H]3[C@@]4(C)C[C@@H](OCc5ccccc5)C5OC(C)(C)OC[C@@]5(C)[C@@H]4CC[C@@]3(C)[C@]1(C)CC2` (some centres undefined), the Activity in data set [26] was found to be 33.6%.
In the case of `C[C@H]1[C@H](C)CC[C@]2(C(=O)O)CC[C@]3(C)C(=CC[C@@H]4[C@@]5(C)C[C@@H](O)[C@H](O)[C@@](C)(CO)[C@@H]5CC[C@]43C)[C@H]12` [ASIATIC ACID], the Activity in the data set on Rattus norvegicus [27] is 25%; with Rattus norvegicus [28], 20%; in the data set on Rattus norvegicus [29] it was 23.1%; in the data set filed under Mus musculus [30], 1%.
Consider `CC1(C)CC[C@]2(C(=O)O[C@@H]3O[C@H](CO)[C@@H](O)[C@H](O)[C@H]3O)CC[C@]3(C)C(=CC[C@@H]4[C@@]5(C)C[C@@H](O)[C@H](O)C(C)(C)[C@@H]5CC[C@]43C)[C@@H]2[C@@H]1O`, for which the Activity in the data set on Hepatocyte [31] is reported as 11.1%; in the data set on Hepatocyte [32], 24.5%; with Hepatocyte [33] it was 25.2%; in the data set with Hepatocyte [34], 15.6%.

The record behind these values is ChEMBL document CHEMBL5260832, “Hepatoprotective natural triterpenoids” (Eur J Med Chem, 2018).
